Structures are written as SMILES.

The target in this test is InhA (Mtb enoyl-acyl-carrier-protein reductase) (Mycobacterium tuberculosis, UniProt P9WGR1). Put plainly: InhA enzyme inhibition assay, % inhibition at […] without pre-incubation. In kind it is biochemical. As to conditions: read-out: % inhibition at 100 nM.
InhA (Mtb enoyl-acyl-carrier-protein reductase), sequence (P9WGR1 whole entry, looked up): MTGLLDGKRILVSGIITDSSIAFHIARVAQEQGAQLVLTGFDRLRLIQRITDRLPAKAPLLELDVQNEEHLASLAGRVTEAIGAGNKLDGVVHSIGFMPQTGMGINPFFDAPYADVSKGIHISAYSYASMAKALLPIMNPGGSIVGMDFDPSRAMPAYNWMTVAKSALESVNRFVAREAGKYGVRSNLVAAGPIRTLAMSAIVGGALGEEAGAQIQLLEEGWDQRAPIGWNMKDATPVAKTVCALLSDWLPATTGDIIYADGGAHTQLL

One may read the inhibition as the change of the read-out against control, counted positive when it falls. Consider `CCCCCCc1ccc(Oc2ccccc2C)c(O)c1` [PT70], for which the inhibition at 0.1 µM was determined as 75%.

The values are drawn from article PMC4386068 (Journal of chemical information and modeling, 2015).
